Target: Hepatic lipase (Mouse)
Assay: Inhibition of hepatic lipase in endothelial lipase knock-out mouse plasma using D31-POPC-HDL as substrate incubated for 2 hrs by LC/MS analysis

COCCS(=O)(=O)C(C(=O)NCC(=O)NC1CC1)c1nc2ccc(-c3ccc(F)nc3)cc2s1 (stereo unspecified)
IC50: 26 µM
